What all share (assay type): in vivo
Assay [1] deals with mustard, wild (wild mustard, Sinapis arvensis). Briefly: Test D pre-/postemergence: mustard, wild. An excerpt:
Seeds of plant species selected from bluegrass (annual bluegrass, Poa annua), blackgrass (Alopecurus myosuroides), canarygrass (Phalaris minor), chickweed (common chickweed, Stellaria media), galium (catchweed bedstraw, Galium aparine), bromegrass, downy (downy bromegrass, Bromus tectorum), field poppy (Papaver rhoeas), field violet (Viola arvensis), foxtail, green (green foxtail, Setaria viridis), deadnettle (henbit deadnettle, Lamium amplexicaule), ryegrass, Italian (Italian ryegrass, Lolium multiflorum), kochia (Kochia scoparia), lambsquarters (Chenopodium album), oilseed rape (Brassica napus), pigweed (Amaranthus retroflexus), Russian thistle (Salsola iberica), chamomile (scentless chamomile, Matricaria inodora), speedwell (bird's-eye speedwell, Veronica persica), barley, spring (spring barley, Hordeum vulgare), wheat, spring (spring wheat, Triticum aestivum), buckwheat, wild (wild buckwheat, Polygonum convolvulus), mustard, wild (wild mustard, Sinapis arvensis), oat, wild (wild oat, Avena fatua), radish, wild (wild radish, Raphanus raphanistrum), windgrass (Apera spica-venti), barley, winter (winter barley, Hordeum vulgare), and wheat, winter (winter wheat, Triticum aestivum) were planted into a silt loam soil and treated preemergence with test chemicals formulated in a non-phytotoxic solvent mixture which included a surfactant. At the same time, these same crop and weed species were planted in pots containing the planting medium comprising spaghnum peat moss, vermiculite, wetting agent and starter nutrients and treated with postemergence applications of the test chemicals formulated in the same manner. Plants ranged in height from 2 to 18 cm (1- to 4-leaf stage).
Treated plants and controls were maintained in a controlled growth environment for 14 to 21 days after which time all species were compared to controls and visually evaluated. Plant response ratings, summarized in Table D, are based on a scale of 0 to 100 where 0 is no effect and 100 is complete control. A dash (-) response means no test result.

Assay [2] deals with lambsquarters (Chenopodium album). The experiment in a line: Test F pre-/postemergence: lambsquarters. The following applies: Preemergence. The text has this: (§1) Seeds of plant species selected from corn (Zea mays), soybean (Glycine max), velvetleaf (Abutilon theophrasti), lambsquarters (Chenopodium album), poinsettia, wild (wild poinsettia, Euphorbia heterophylla), pigweed, palmer (palmer pigweed, Amaranthus palmeri), waterhemp (common waterhemp, Amaranthus rudis), surinam grass (Brachiaria decumbens), crabgrass, Brazil (Brazilian crabgrass, Digitaria horizontalis), panicum, fall (fall panicum Panicum dichotomiflorum), crabgrass, large (large crabgrass, Digitaria sanguinalis), foxtail, giant (giant foxtail, Setaria faberii), foxtail, green (green foxtail Setaria viridis), goosegrass (Eleusine indica), ragweed (common ragweed, Ambrosia elatior), barnyardgrass (Echinochloa crus-galli), sandbur (southern sandbur, Cenchrus echinatus), arrowleaf sida (Sida rhombifolia), ryegrass, Italian (Italian ryegrass, Lolium multiflorum), dayflower, VA (Virginia (VA) dayflower, Commelina virginica), field bindweed (Convolvulus arvensis), cocklebur (common cocklebur, Xanthium strumarium), morningglory (Ipomoea coccinea), nightshade (eastern black nightshade, Solanum ptycanthum), kochia (Kochia scoparia), nutsedge, yellow (yellow nutsedge, Cyperus esculentus), johnsongrass (Sorghum halepense), smartweed (ladysthumb smartweed, Polygonum persicaria), and beggarticks (hairy beggarticks, Bidens pilosa), were planted into a silt loam soil and treated preemergence with test chemicals formulated in a non-phytotoxic solvent mixture which included a surfactant. At the same time, plants selected from these crop and weed species and also pigweed (Amaranthus retroflexus), waterhemp_RES1 (ALS/Triazine resistant common waterhemp, Amaranthus rudis) and waterhemp_RES2 (ALS/HPPD resistant common waterhemp, Amaranthus rudis) were planted in pots containing a planting medium comprising spaghnum peat moss, vermiculite, wetting agent and starter nutrients treated with postemergence applications of some of the test chemicals formulated in the same manner. Plants ranged in height from 2 to 18 cm for postemergence treatments (1- to 4-leaf stage).
(§2) Treated plants and controls were maintained in a greenhouse for 14 to 21 days, after which time all species were compared to controls and visually evaluated. Plant response ratings, summarized in Table E, are based on a scale of 0 to 100 where 0 is no effect and 100 is complete control. A dash (-) response means no test result.

Assay [3] deals with surinam grass (Brachiaria decumbens). The experiment in a line: Test F pre-/postemergence: surinam grass. The following applies: Preemergence.
Description: as §1, §2

Assay [4] has as its system sandbur (southern sandbur, Cenchrus echinatus). The experiment in a line: Test F pre-/postemergence: sandbur.
Description: as §1, §2

Assay [5] relates to foxtail, green (green foxtail, Setaria viridis). Briefly: Test E pre-/postemergence: foxtail, green. The following applies: Preemergence, scale 0 to 100.
Description: Seeds of plant species selected from corn (Zea mays), soybean (Glycine max), velvetleaf (Abutilon theophrasti), lambsquarters (Chenopodium album), poinsettia, wild (wild poinsettia, Euphorbia heterophylla), pigweed, palmer (palmer pigweed, Amaranthus palmeri), waterhemp (common waterhemp, Amaranthus rudis), smartweed (ladysthumb smartweed, Polygonum persicaria), surinam grass (Brachiaria decumbens), crabgrass, large (large crabgrass, Digitaria sanguinalis), crabgrass, Brazil (Brazilian crabgrass, Digitaria horizontalis), panicum, fall (fall panicum, Panicum dichotomiflorum), foxtail, giant (giant foxtail, Setaria faberii), foxtail, green (green foxtail, Setaria viridis), goosegrass (Eleusine indica), johnsongrass (Sorghum halepense), ragweed (common ragweed, Ambrosia elation), barnyardgrass (Echinochloa crus-galli), sandbur (southern sandbur, Cenchrus echinatus), arrowleaf sida (Sida rhombifolia), ryegrass, Italian (Italian ryegrass, Lolium multiflorum), dayflower, (VA) (Virginia dayflower, Commelina virginica), field bindweed (Convolvulus arvensis), cocklebur (common cocklebur, Xanthium strumarium), morningglory (Ipomoea coccinea), nightshade (eastern black nightshade, Solanum ptycanthum), kochia (Kochia scoparia), nutsedge, yellow (yellow nutsedge, Cyperus esculentus) and beggarticks (hairy beggarticks, Bidens pilosa) were planted into a silt loam soil and treated preemergence with test chemicals formulated in a non-phytotoxic solvent mixture which included a surfactant. At the same time, plants selected from these crop and weed species were planted in pots containing a growing medium comprising spaghnum peat moss, vermiculite, wetting agent and starter nutrients and treated with postemergence applications of some of the test chemicals formulated in the same manner. Plants ranged in height from 2 to 18 cm for postemergence treatments (1- to 4-leaf stage).
as §2

[6] abbreviates: Postemergence, 31 g ai/ha, scale 0 to 100 (0 no effect, 100 complete control).
[7] abbreviates: Postemergence, 62 g ai/ha, scale 0 to 100 (0 no effect, 100 complete control).
Where [8] appears, read: Postemergence, 125 g ai/ha, scale 0 to 100, 0 no effect, 100 complete control.
Where [9] appears, read: Postemergence, 250 g ai/ha, scale 0 to 100 (0 no effect, 100 complete control).
Where [10] appears, read: Postemergence, 16 g ai/ha, scale 0 to 100.
Setting [11] is: 16 g ai/ha, scale 0 to 100 (0 no effect, 100 complete control).
[12] abbreviates: 31 g ai/ha, scale 0 to 100 (0 no effect, 100 complete control).
The mark [13] stands for this setting: Preemergence, 16 g ai/ha, scale 0 to 100 (0 no effect, 100 complete control).
Setting [14] is: Preemergence, 31 g ai/ha, scale 0 to 100 (0 no effect, 100 complete control).
[15] abbreviates: Preemergence, 125 g ai/ha, scale 0 to 100.
Where [16] appears, read: Preemergence, 62 g ai/ha, scale 0 to 100.
Where [17] appears, read: Preemergence, 250 g ai/ha, scale 0 to 100.
[18] abbreviates: Postemergence, 8 g ai/ha, scale 0 to 100.

Consider `Cc1nn(-c2ccnc(C(F)(F)F)c2)nc1Cc1ccnc(C(F)(F)F)c1` [Compound 137], for which the “Plant response rating: Mustard, Wild” value in assay [1] (setting [6]) worked out at 60; in assay [1] (setting [7]), 80; in assay [1] (setting [8]) it was 95; in assay [1] (setting [9]) it was 100. For the same compound, the “Plant response rating, Mustard, Wild” value in assay [1] (setting [10]) amounted to 50.

`Fc1ccc(-n2nc(Cc3ccnc(C(F)(F)F)c3)c(OCC(F)(F)F)n2)cc1` [Compound 142]: the “Plant response rating, Lambsquarters” value is given as 0 in assay [2] (setting [11]); 65 in assay [2] (setting [12]); 98 in assay [2] (62 g ai/ha, scale 0 to 100); 98 in assay [2] (125 g ai/ha, scale 0 to 100). Further, the “Plant response rating, Surinam Grass” value is reported as 5 in assay [3] (setting [11]); 5 in assay [3] (setting [12]); 60 in assay [3] (125 g ai/ha, scale 0 to 100). The “Plant response rating, Sandbur” value is 5 in assay [4] (setting [13]), 5 in assay [4] (setting [14]) and 70 in assay [4] (setting [15]).

For `Cc1nn(-c2ccc(F)cc2)nc1Cc1ccnc(C(F)(F)F)c1` [Compound 16, 4-[[2-(4-fluorophenyl)-5-methyl-2H-1,2,3-triazol-4-yl]methyl]-2-(trifluoromethyl)pyridine], the “Plant response rating: Mustard, Wild” value turned out to be 90 in assay [1] (setting [7]) and 100 in assay [1] (setting [9]). The “Plant response rating, Mustard, Wild” value in assay [1] (setting [10]) was 10; in assay [1] (setting [13]) it was 0; in assay [1] (setting [14]) it was 0; in assay [1] (setting [16]) it was 100; in assay [1] (setting [15]), 100; in assay [1] (setting [17]), 100. For the same compound, the “Plant response rating: Foxtail, Green” value in assay [5] (8 g ai/ha) stood at 60; in assay [5] (16 g ai/ha) it was 90; in assay [5] (31 g ai/ha), 90; in assay [5] (62 g ai/ha) it was 100; in assay [5] (125 g ai/ha), 100.

In the case of `Cc1nn(-c2ccc(F)cc2)nc1Oc1ccnc(C(F)(F)F)c1` [Compound 129, 4-[[2-(4-fluorophenyl)-5-methyl-2H-1,2,3-triazol-4-yl]oxy]-2-(trifluoromethyl)pyridine], the “Plant response rating, Mustard, Wild” value in assay [1] (setting [13]) was found to be 0; in assay [1] (setting [14]), 5; in assay [1] (setting [16]) it was 40; in assay [1] (setting [15]), 80; in assay [1] (setting [17]) it was 100. The “Plant response rating: Foxtail, Green” value stood at 0 in assay [5] (8 g ai/ha); 60 in assay [5] (16 g ai/ha); 100 in assay [5] (31 g ai/ha); 100 in assay [5] (62 g ai/ha); 100 in assay [5] (125 g ai/ha).

With `Cc1nn(-c2ccc(C(F)(F)F)cc2)nc1Cc1ccnc(C(F)(F)F)c1` [Compound 47, 4-[[5-methyl-2-[4-(trifluoromethyl)phenyl]-2H-1,2,3-triazol-4-yl]methyl]-2-(trifluoromethyl)pyridine], the “Plant response rating: Foxtail, Green” value in assay [5] (16 g ai/ha) is 85; in assay [5] (31 g ai/ha) it was 100; in assay [5] (62 g ai/ha) it was 100; in assay [5] (125 g ai/ha), 100; in assay [5] (250 g ai/ha) it was 100.

As to `Cc1nn(-c2ccc(F)c(F)c2)nc1Oc1ccnc(C(F)(F)F)c1` [Compound 145], the “Plant response rating: Mustard, Wild” value in assay [1] (setting [6]) came to 75; in assay [1] (setting [7]), 90; in assay [1] (setting [8]), 100. Further, the “Plant response rating, Mustard, Wild” value in assay [1] (setting [18]) is recorded as 25; in assay [1] (setting [10]) it was 70. The “Plant response rating, Sandbur” value in assay [4] (setting [18]) is reported as 10; in assay [4] (setting [10]) it was 20; in assay [4] (Postemergence, 31 g ai/ha, scale 0 to 100), 30; in assay [4] (Postemergence, 62 g ai/ha, scale 0 to 100), 35; in assay [4] (Postemergence, 125 g ai/ha, scale 0 to 100), 35.

Regarding `CCOc1nn(-c2ccc(F)cc2)nc1Cc1ccnc(C(F)F)c1` [Compound 195], the “Plant response rating: Mustard, Wild” value in assay [1] (setting [6]) was found to be 80; in assay [1] (setting [7]) it was 80; in assay [1] (setting [8]) it was 95; in assay [1] (setting [9]), 100. For the same compound, the “Plant response rating, Mustard, Wild” value in assay [1] (setting [10]) was 60; in assay [1] (setting [13]), 0; in assay [1] (setting [14]), 10; in assay [1] (setting [16]) it was 40; in assay [1] (setting [15]), 100; in assay [1] (setting [17]), 100.

For `Cc1nn(-c2ccc(F)c(C(F)(F)F)c2)nc1Oc1ccnc(C(F)(F)F)c1` [Compound 147], the “Plant response rating: Mustard, Wild” value in assay [1] (setting [6]), in assay [1] (setting [7]) and in assay [1] (setting [8]) was 100 throughout. For the same compound, the “Plant response rating, Mustard, Wild” value was determined as 95 in assay [1] (setting [10]); 55 in assay [1] (setting [13]); 60 in assay [1] (setting [14]); 100 in assay [1] (setting [16]); 95 in assay [1] (setting [15]).
